According to ChEMBL document CHEMBL1201862, “PubChem BioAssay data set” (2004):
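Compound exposure: 48 hours, 5 concentrations, 96-well plates. The concentration for 50% growth inhibition is given as GI50.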 Active and inactive are the calls of the source. Rule as the data show it: active = GI50 up to about 1.1 µM and inactive = higher.

Columns and labels:
Assay in all cases: growth of human tumour cells (NCI), 48 h
MDA-MB-231 = test system: MDA-MB-231
Hs-578T = test system: Hs-578T
T47D = test system: T47D
786-0 = test system: 786-0
LXFL 529 = test system: LXFL 529
XF498 = test system: XF498
DMS-273 = test system: DMS-273
M19-MEL = test system: M19-MEL
RXF 631 = test system: RXF 631

| SMILES | GI50 (MDA-MB-231) | GI50 (Hs-578T) | GI50 (T47D) | GI50 (LXFL 529) | GI50 (XF498) | GI50 (M19-MEL) | further results |
| --- | --- | --- | --- | --- | --- | --- | --- |
| OC(c1ccc(Cl)cc1)(c1ccc(Cl)cc1)c1cncnc1 | 18.6 µM (inactive) | 25.3 µM (inactive) | 28.2 µM (inactive) |  |  |  |  |
| O=S(=O)(O)c1ccc(-c2c3nc(c(-c4ccc(S(=O)(=O)O)cc4)c4ccc([nH]4)c(-c4ccc(S(=O)(=O)O)cc4)c4nc(c(-c5ccc(S(=O)(=O)O)cc5)c5ccc2[nH]5)C=C4)C=C3)cc1 | 20.9 µM (inactive) | 13.9 µM (inactive) | 33 µM (inactive) |  |  |  | GI50 (786-0): > 100 µM (inactive) |
| NC(CCOCCP(=O)(O)O)C(=O)O (centres undefined) | > 100 µM (inactive) | > 100 µM (inactive) | 57.7 µM (inactive) |  |  |  |  |
| CC(SC1=CC(=O)c2c(Cl)ccc(O)c2C1=O)C(=O)O (centres undefined) |  |  |  | 16 µM (inactive) | 19.9 µM (inactive) |  | GI50 (DMS-273): 18.1 µM (inactive) |
| O=c1[nH]nc(NCc2ccccc2)c2nnn(Cc3ccccc3)c12 | > 100 µM (inactive) |  |  |  |  |  |  |
| CCOC(=O)/C(=C\NC#N)c1nc2ccccc2[nH]1 |  |  |  |  |  |  | GI50 (786-0): > 100 µM (inactive) |
| CC1C(O)[C@@]2(OC[C@@]34C(=O)CC5(O)[C@H](CCC6Cc7nc8c(nc7C[C@]65C)CC5CC[C@@H]6C7=C[C@H]9O[C@@]%10(O[C@@](C)(CO)C[C@@H]%10O)C(C)[C@@]9(O)[C@]7(C)[C@@H](O)CC6[C@]5(C)C8)C3=CC[C@H]4C2C)OC1(C)C (some centres undefined) |  |  |  |  |  | 0.442 µM (active) | GI50 (DMS-273): < 0.000355 µM (active) |
| Nc1nc(=O)[nH][nH]1 |  |  |  |  | > 100 µM (inactive) | > 100 µM (inactive) | GI50 (DMS-273): > 100 µM (inactive) |
| CN(C)CCNC(=O)Cn1ccc(=O)c2ccc([N+](=O)[O-])cc21 |  | > 100 µM (inactive) | > 100 µM (inactive) |  |  |  | GI50 (786-0): > 100 µM (inactive) |
| CCOC(=O)C(=CNC(Cc1c[nH]c2ccccc12)C(=O)OC)C(=O)OCC (centres undefined) |  |  |  | > 100 µM (inactive) | > 100 µM (inactive) | > 100 µM (inactive) | GI50 (RXF 631): > 100 µM (inactive) |
| Cc1n[nH]c(N)c1C(N)=O |  |  |  | > 100 µM (inactive) | > 100 µM (inactive) |  | GI50 (DMS-273): > 100 µM (inactive) |
| C[Si](C)(OCCS(=O)(=O)O)C1(Cc2cccc3ccccc23)S(=O)(=O)OCCOS1(=O)=O | 18.1 µM (inactive) | 33.2 µM (inactive) | 17.1 µM (inactive) |  |  |  |  |
| C#CCOc1c(C(=O)OCC)c(=O)n(C)c2ccccc12 |  |  |  | > 100 µM (inactive) | 72.6 µM (inactive) | > 100 µM (inactive) | GI50 (RXF 631): > 100 µM (inactive) |
| N=S(=O)(c1ccccc1)c1ccccc1 |  |  |  | > 100 µM (inactive) |  | > 100 µM (inactive) |  |
